Measurements reported in patent US9586928B2 (The Scripps Research Institute, priority 2011, dated 2017).

Experiments:
GST-RORγ = biological target: T1, GST-RORγ (Homo sapiens, UniProt P51449); experiment: RORγ scintillation proximity (SPA) radioligand binding assay, displacement of [3H]-T0901317; details: 10 μM compound; read-out: RORγ SPA % bound = % radiolabel bound
T1 construct: 1 μg of GST-RORγ-LBD, 5 nM of [3H]T1317 as radioligand
T1 sequence (P51449 269-508 limits assumed): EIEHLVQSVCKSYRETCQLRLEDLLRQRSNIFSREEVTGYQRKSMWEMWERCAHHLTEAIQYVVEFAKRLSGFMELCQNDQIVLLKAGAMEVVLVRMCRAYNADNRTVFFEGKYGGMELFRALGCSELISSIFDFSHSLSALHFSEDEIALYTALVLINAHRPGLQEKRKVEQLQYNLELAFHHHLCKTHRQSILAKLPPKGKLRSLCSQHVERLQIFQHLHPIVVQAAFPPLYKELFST

VP16 = experiment: Gal4 DBD-VP16 / UAS luciferase control assay; assay type: cell-based; details: 10 μM
Procedure: (§2) The cells were treated with either DMSO or various compounds as indicated four hours after replating. Following additional 20 hour incubation, luciferase levels were assayed by one-step addition of 20 μL BriteLite (Perkin Elmer) and read using an Envision multilabel plate reader (Perkin Elmer).

RORγ = biological target: T2, RORγ (Homo sapiens, UniProt P51449); experiment: Gal4-RORγ LBD / UAS luciferase cotransfection assay; assay type: cell-based; details: 10 μM
T2 construct: expressed in transfected cells; host or cells: HEK293T
T2 sequence (P51449 269-508 limits assumed): T1 sequence (P51449 269-508 limits assumed)
Procedure: as §2
Cotransfection assays were performed as previously described in HEK293 cells (Gal4 cotransfection assay or IL-17 luciferase reporter)[8]. HEK293 and the mouse lymphoma EL4 (ATCC) cells were maintained in DMEM supplemented with 10% FBS plus antibiotics (penicillin and streptomycin; Invitrogen).

LXR = biological target: T3, LXR (Homo sapiens, UniProt Q13133); experiment: Gal4-LXRα / UAS luciferase cotransfection assay; assay type: cell-based; details: 10 μM
T3 sequence (Q13133 209-447 limits assumed): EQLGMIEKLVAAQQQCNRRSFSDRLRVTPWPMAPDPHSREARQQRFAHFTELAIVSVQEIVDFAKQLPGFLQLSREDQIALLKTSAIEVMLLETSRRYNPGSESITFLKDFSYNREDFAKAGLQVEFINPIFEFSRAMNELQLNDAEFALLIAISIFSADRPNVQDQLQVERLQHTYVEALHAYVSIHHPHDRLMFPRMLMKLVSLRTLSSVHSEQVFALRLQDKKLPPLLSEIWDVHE

RORα = biological target: T4, RORα (Homo sapiens, UniProt P35398); experiment: Gal4-RORα LBD / UAS luciferase cotransfection assay; assay type: cell-based; details: 10 μM
T4 construct: expressed in transfected cells; host or cells: HEK293T
T4 sequence (P35398 272-510 limits assumed): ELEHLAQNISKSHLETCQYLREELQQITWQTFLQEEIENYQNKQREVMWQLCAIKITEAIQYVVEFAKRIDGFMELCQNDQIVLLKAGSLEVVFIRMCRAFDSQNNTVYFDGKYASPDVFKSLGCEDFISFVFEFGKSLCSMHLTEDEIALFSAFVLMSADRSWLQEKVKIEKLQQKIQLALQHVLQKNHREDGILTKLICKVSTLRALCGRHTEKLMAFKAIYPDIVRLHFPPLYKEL

[1] = mouse, in vivo; cited from earlier work
TH17 cells = details: in vitro and in vivo; cited from earlier work
EL-4 cells [2] = experiment: Intracellular IL-17 in PMA/ionomycin stimulated EL-4 cells (flow cytometry); assay type: cell-based, murine; details: 5 μM, compared to vehicle treated cells
Procedure: (§1) The treatment of EL4 with SR2211 repressed the Il17 gene expression to a greater extent as compared to digoxin. […] In order to measure the effect of SR2211 on IL-17 production, we determined the intracellular levels of IL-17 using flow cytometry. After the stimulation of EL-4 cells with PMA/ionomycin for 3 hr, the cells were treated with BD GolgiPlug™ (protein transport inhibitor) to allow intracellular accumulation of cytokines. After 2 hr, the cells were fixed and stained to analyze the IL-17 by flow cytometry.
For intracellular cytokine staining, cells were stimulated with PMA (50 ng/Ml) and lonomycin (1 ug/ml) for 5 hrs. After 3 hrs of incubation, BD Golgiplug (BD Bioscience) was added and incubated for 2 hrs. Then, cells were fixed, permeabilized, and stained with PEIL17A Ab (BD Biosciences). Cell sorting was performed using LSRII (BD Biosciences). • 1. Ivanov, I I; McKenzie, B. S.; Zhou, L.; Tadokoro, C. E.; Lepelley, A.; Lafaille, J. J.; Cua, D. J.; Littman, D. R. (2006) The orphan nuclear receptor RORgammat directs the differentiation program of proinflammatory IL-17+ T helper cells. Cell 126, 1121-1133. • 2. Nakae, S.; Nambu, A.; Sudo. K.; Iwakura. Y. (2003) Suppression of immune induction of collagen-induced arthritis in IL-17-deficient mice. J Immunol 171, 6173-6177. • 3. Jetten. […]

EL-4 cells [3] = experiment: IL-17A and IL-23R mRNA in PMA/ionomycin stimulated EL-4 cells (real-time PCR); assay type: cell-based, murine; details: 5 μM pre-treatment 20 hr, PMA/ionomycin stimulation
Procedure: as §1
One million EL-4 cells were seeded in each well of 6 well plate and incubated with 5 uM of digoxin or SR2211 or DMSO for 20 hrs. Cells were then stimulated with phorbol 12-myristate 13-acetate (PMA) (50 ng/ml; Sigma) and Ionomycin (1 ug/ml; Sigma) for 5 hours. Then, RNA was extracted with RNeasy midi kit using DNase I (Qiagen), then cDNA was synthesized with high capacity cDNA Reverse Transcription kits (Applied Biosystems). IL17A gene expression was normalized to the expression of GAPDH. IL17A, IL-23R and GAPDH primer sets were as follows: […]

| Compound | remaining activity at 10 µM (GST-RORγ) | VP16 repression, fold change over DMSO (VP16) | RORγ repression, fold change over DMSO (RORγ) | LXR activation, fold change over DMSO (LXR) | RORα repression, fold change over DMSO (RORα) | onset and severity of EAE [1] | TH17 cell differentiation and function (TH17 cells) | IL-17 intracellular staining (EL-4 cells [2]) | IL-17 gene expression (EL-4 cells [3]) | expression of IL-23 receptor (Il23r) (EL-4 cells [3]) |
| --- | --- | --- | --- | --- | --- | --- | --- | --- | --- | --- |
| OC(c1ccc(-c2ccc(CN3CCN(Cc4cscn4)CC3)cc2)cc1)(C(F)(F)F)C(F)(F)F [Compound 115, 1,1,1,3,3,3-Hexafluoro-2-(4′-((4-(thiazol-4-ylmethyl)piperazin-1-yl)methyl)-[1,1′-biphenyl]-4-yl)propan-2-ol] | 75% | 0.69 fold change over DMSO | 0.31 fold change over DMSO | 0.76 fold change over DMSO | 0.61 fold change over DMSO |  |  |  |  |  |
| O=C(c1cscn1)N1CCN(Cc2ccc(-c3ccc(C(O)(C(F)(F)F)C(F)(F)F)cc3)cc2)CC1 [Compound 116, (4-((4′-(1,1,1,3,3,3-Hexafluoro-2-hydroxypropan-2-yl)-[1,1′-biphenyl]-4-yl)methyl)piperazin-1-yl)(thiazol-4-yl)methanone] | 76% | 0.76 fold change over DMSO | 0.59 fold change over DMSO | 0.81 fold change over DMSO | 0.56 fold change over DMSO |  |  |  |  |  |
| CC(=O)Nc1nc(C)c(S(=O)(=O)Nc2ccc(C(O)(C(F)(F)F)C(F)(F)F)cc2)s1 [SR1001, N-(5-(N-(4-(1,1,1,3,3,3-hexafluoro-2-hydroxypropan-2-yl)phenyl)sulfamoyl)-4-methylthiazol-2-yl)acetamide] |  |  |  |  |  | effective at delaying the onset and reducing the severity | effective at suppressing TH17 cell differentiation and function in vitro and in vivo |  |  |  |
| C[C@H]1O[C@@H](O[C@H]2[C@@H](O)C[C@H](O[C@H]3[C@@H](O)C[C@H](O[C@H]4CC[C@@]5(C)[C@H](CC[C@@H]6[C@@H]5C[C@@H](O)[C@]5(C)[C@@H](C7=CC(=O)OC7)CC[C@]65O)C4)O[C@@H]3C)O[C@@H]2C)C[C@H](O)[C@@H]1O [digoxin, reference compound] |  |  |  |  |  |  |  | significant inhibition of IL-17 intracellular staining | significant reduction in the IL-17 gene expression | significantly inhibited |
